According to US9326985B2, “Heteroaryl pyridone and aza-pyridone amide compounds” (Genentech, Inc., priority 2013, dated 2016):

Test system: CD69 by B lymphocytes in human whole blood activated with goat F(ab')2 anti-human IgM
Assay: CD69 Whole Blood Assay (CD69 Hu Blood FACS)
Format: cell-based
Conditions: CD69 positive of CD20 positive cells
Procedure: CD69 is a type II C-type lectin involved in lymphocyte migration and cytokine secretion.
Human blood is obtained from healthy volunteers, with the following restrictions: 1 week drug-free, non-smokers. Blood (approximately 20 mls to test 8 compounds) is collected by venipuncture into Vacutainer® (Becton, Dickinson and Co.) tubes with sodium heparin.
Solutions of Formula I compounds at 10 mM in DMSO are diluted 1:10 in 100% DMSO, then are diluted by three-fold serial dilutions in 100% DMSO for a ten point dose-response curve. The compounds are further diluted 1:10 in PBS and then an aliquot of 5.5 μl of each compound is added in duplicate to a 2 ml 96-well plate; 5.5 μl of 10% DMSO in PBS is added as control and no-stimulus wells. Human whole blood—HWB (100 μl) is added to each well. After mixing the plates are incubated at 37° C., 5% CO2, 100% humidity for 30 minutes. Goat F(ab′)2 anti-human IgM (10 μl of a 500 μg/ml solution, 50 μg/ml final) is added to each well (except the no-stimulus wells) with mixing and the plates are incubated for an additional 20 hours. At the end of the 20 hour incubation, samples are incubated with fluorescent labeled antibodies for 30 minutes, at 37° C., 5% CO2, 100% humidity. Include induced control, unstained and single stains for compensation adjustments and initial voltage settings. Samples are then lysed with PharM Lyse™ (BD Biosciences Pharmingen) according to the manufacturer's instructions. Samples are then transferred to a 96 well plate suitable to be run on the BD Biosciences HTS 96 well system on the LSRII machine. Data acquired and Mean Fluorescence Intensity values were obtained using BD Biosciences DIVA Software. Results are initially analyzed by FACS analysis software (Flow Jo).

[1] = Homo sapiens, Lymphocyte, Table 1, anti-IgM stimulation
[2] = Lymphocyte, Table 1, anti-IgM stimulation
[3] = Lymphocyte, Table 2, anti-IgM stimulation

IC50 [2] [nM]	Structure (SMILES)	IC50 [1] [nM]	further results
–	Cn1cc(-c2ccnc(N3CCn4c(cc5c4CC(C)(C)C5)C3=O)c2CO)cc(NC(=O)[C@H]2C[C@H]2F)c1=O [Compound 119, (1R,2R)—N-[5-[2-(7,7-dimethyl-4-oxo-1,2,6,8-tetrahydrocyclopenta[3,4]pyrrolo[3,5-b]pyrazin-3-yl)-3-(hydroxymethyl)-4-pyridyl]-1-methyl-2-oxo-3-pyridyl]-2-fluoro-cyclopropanecarboxamide]	122	–
1600	CCC(=O)Nc1cc(-c2ccnc(N3CCn4c(cc5c4CC(C)(C)C5)C3=O)c2CO)cn(C)c1=O [Compound 107, N-[5-[2-(7,7-dimethyl-4-oxo-1,2,6,8-tetrahydrocyclopenta[3,4]pyrrolo[3,5-b]pyrazin-3-yl)-3-(hydroxymethyl)-4-pyridyl]-1-methyl-2-oxo-3-pyridyl]propanamide]	–	–
4200	Cn1cc(-c2ccnc(N3CCn4c(cc5c4CC(C)(C)C5)C3=O)c2CO)cc(NC(=O)C2CCC2)c1=O [Compound 101, N-[5-[2-(7,7-dimethyl-4-oxo-1,2,6,8-tetrahydrocyclopenta[3,4]pyrrolo[3,5-b]pyrazin-3-yl)-3-(hydroxymethyl)-4-pyridyl]-1-methyl-2-oxo-3-pyridyl]cyclobutanecarboxamide]	–	–
4900	Cn1cc(-c2ccnc(N3CCn4c(cc5c4CC(C)(C)C5)C3=O)c2CO)cc(NC(=O)CC2CC2)c1=O [Compound 103, 2-cyclopropyl-N-[5-[2-(7,7-dimethyl-4-oxo-1,2,6,8-tetrahydrocyclopenta[3,4]pyrrolo[3,5-b]pyrazin-3-yl)-3-(hydroxymethyl)-4-pyridyl]-1-methyl-2-oxo-3-pyridyl]acetamide]	–	–
–	Cn1cc(-c2ccnc(N3CCn4c(cc5c4CC(C)(C)C5)C3=O)c2CO)cc(NC(=O)[C@@H]2C[C@@H]2F)c1=O [Compound 120, (1S,2S)—N-[5-[2-(7,7-dimethyl-4-oxo-1,2,6,8-tetrahydrocyclopenta[3,4]pyrrolo[3,5-b]pyrazin-3-yl)-3-(hydroxymethyl)-4-pyridyl]-1-methyl-2-oxo-3-pyridyl]-2-fluoro-cyclopropanecarboxamide]	85.8	–
–	Cn1cc(-c2ccnc(N3CCn4c(cc5c4CC(C)(C)C5)C3=O)c2CO)cc(NC(=O)C2CC2F)c1=O (stereo not shown) [Compound 117, N-[5-[2-(7,7-dimethyl-4-oxo-1,2,6,8-tetrahydrocyclopenta[3,4]pyrrolo[3,5-b]pyrazin-3-yl)-3-(hydroxymethyl)-4-pyridyl]-1-methyl-2-oxo-3-pyridyl]-2-fluoro-cyclopropanecarboxamide]	–	IC50 (Table 1, anti-IgM stimulation): 567 nM
–	CCCC(=O)Nc1cc(-c2ccnc(N3CCn4c(cc5c4CC(C)(C)C5)C3=O)c2CO)cn(C)c1=O [Compound 163, N-[5-[2-(7,7-dimethyl-4-oxo-1,2,6,8-tetrahydrocyclopenta[3,4]pyrrolo[3,5-b]pyrazin-3-yl)-3-(hydroxymethyl)-4-pyridyl]-1-methyl-2-oxo-3-pyridyl]butanamide]	–	IC50 [3]: 1900 nM
–	Cn1cc(-c2ccnc(-n3ncc4cc(C(C)(C)C)cc(F)c4c3=O)c2CO)cc(NC(=O)C2CC2)c1=O [Compound 125, N-[5-[2-(6-tert-butyl-8-fluoro-1-oxo-phthalazin-2-yl)-3-(hydroxymethyl)-4-pyridyl]-1-methyl-2-oxo-3-pyridyl]cyclopropanecarboxamide]	62.5	–
–	Cn1cc(-c2ccnc(N3CCn4c(cc5c4CC(C)(C)C5)C3=O)c2CO)cc(NC(=O)C2CC2F)c1=O (stereo not shown) [Compound 118, N-[5-[2-(7,7-dimethyl-4-oxo-1,2,6,8-tetrahydrocyclopenta[3,4]pyrrolo[3,5-b]pyrazin-3-yl)-3-(hydroxymethyl)-4-pyridyl]-1-methyl-2-oxo-3-pyridyl]-2-fluoro-cyclopropanecarboxamide]	–	IC50 (Table 1, anti-IgM stimulation): 219 nM
–	Cn1cc(-c2ccnc(N3CCn4c(cc5c4CC(C)(C)C5)C3=O)c2CO)cc(NC(=O)[C@H]2CCCO2)c1=O (stereo in doubt) [Compound 148, (2R)—N-[5-[2-(7,7-dimethyl-4-oxo-1,2,6,8-tetrahydrocyclopenta[3,4]pyrrolo[3,5-b]pyrazin-3-yl)-3-(hydroxymethyl)-4-pyridyl]-1-methyl-2-oxo-3-pyridyl]tetrahydrofuran-2-carboxamide]	–	IC50 [3]: > 6100 nM
